In ChEMBL document CHEMBL5136972, “Targeting SARS-CoV-2 Proteases and Polymerase for COVID-19 Treatment: State of the Art and Future Opportunities” (J Med Chem, 2022):
pEC50, pIC50: −log10 of the molar value.

What was measured:
[1] = Cmax in CD-1 mouse at 3 mg/kg, sc measured after up to 24 hrs by HPLC-MS/MS analysis; type: ADME, organism-based; set-up: time < 24 hrs, dose 3 mg/kg, route sc; conditions: in vivo
[2] = Half life in CD-1 mouse at 3 mg/kg, sc measured after up to 24 hrs by HPLC-MS/MS analysis; type: ADME, organism-based; conditions: in vivo
[3] = Inhibition of MERS CoV 3CL protease expressed in Escherichia coli BL21-Gold DE3 cells by FRET assay; set-up: species or system Middle East respiratory syndrome-related coronavirus
SARS-CoV [4] = experiment: Antiviral activity against […] infected in HAE cells incubated for 48 hrs by qRT-PCR analysis; type: functional, organism-based
[5] = Half life in CD1 mouse at 500 mg/kg, po administered as single dose by LC-MS/MS analysis; type: ADME, organism-based; conditions: in vivo
[6] = Half life in CD1 mouse at 150 mg/kg, po administered as single dose by LC-MS/MS analysis; type: ADME, organism-based; conditions: in vivo
[7] = Oral bioavailability in CD1 mouse at 150 mg/kg administered as single dose by LC-MS/MS analysis; type: ADME, organism-based; conditions: in vivo
[8] = test system: Middle East respiratory syndrome-related coronavirus; experiment: Antiviral activity against […] infected in HAE cells incubated for 48 hrs by qRT-PCR analysis; type: functional, organism-based
SARS-CoV-2 [9] = experiment: Antiviral activity against SARS CoV-2 clinical isolate 2019-nCoV/USA-WA1/2020 infected in African green monkey Vero E6 cells incubated for 48 hrs by CellTiter-Glo assay; type: functional, organism-based; conditions: Severe acute respiratory syndrome coronavirus 2, 2019-nCoV/USA-WA1/2020, Vero C1008, 48 h
[10] = Oral bioavailability in CD1 mouse at 50 mg/kg administered as single dose by LC-MS/MS analysis; type: ADME, organism-based; conditions: in vivo
SARS-CoV-2 [11] = experiment: Antiviral activity against SARS CoV-2 clinical isolate 2019-nCoV/USA-WA1/2020 infected in human Calu-3 cells measured after 72 hrs by plaque assay; type: functional, organism-based; conditions: Severe acute respiratory syndrome coronavirus 2, 2019-nCoV/USA-WA1/2020, Calu-3, 72 h
[12] = Half life in CD1 mouse at 50 mg/kg, po administered as single dose by LC-MS/MS analysis; type: ADME, organism-based; conditions: in vivo
[13] = Cytotoxicity against African green monkey Vero E6 cells infected with SARS CoV-2 clinical isolate 2019-nCoV/USA-WA1/2020 incubated for 48 hrs by CellTiter-Glo assay; type: toxicity, cell-based, Vero C1008; conditions: chlorocebus sabaeus
[14] = Oral bioavailability in CD1 mouse at 500 mg/kg administered as single dose by LC-MS/MS analysis; type: ADME, organism-based; conditions: in vivo
[15] = Drug distribution in CD1 mouse liver at 150 to 500 mg/kg, po measured after 8 hrs by LC-MS/MS analysis; type: ADME, organism-based; conditions: in vivo, dose 150-500 mg/kg
[16] = Clearance in CD-1 mouse at 5 to 20 mg/kg, ip measured after up to 24 hrs by LC-MS/MS analysis; type: ADME, organism-based; conditions: in vivo, dose 5-20 mg/kg
SARS-CoV-2 [17] = experiment: Antiviral activity against SARS CoV-2 infected in African green monkey Vero cells assessed as inhibition of plaque formation by viral plaque assay; type: functional, organism-based; conditions: Severe acute respiratory syndrome coronavirus 2, Vero
[18] = Cytotoxicity against African green monkey Vero E6 cells by CCK-8 assay; type: toxicity, cell-based, Vero C1008; conditions: chlorocebus sabaeus
[19] = Cytotoxicity against African green monkey Vero E6 cells incubated for 3 hrs by CCK-8 assay; type: toxicity, cell-based, Vero C1008; conditions: chlorocebus sabaeus
[20] = target: T1, Replicase polyprotein 1ab (Severe acute respiratory syndrome coronavirus 2, UniProt P0DTD1); experiment: Inhibition of recombinant SARS CoV-2 PL protease incubated for 60 mins by fluorescence based analysis
in vivo [21] = conditions: C57BL/6J (wild type), mouse, sc, 25 mg/kg
SARS-CoV [22] = experiment: Antiviral activity against SARS CoV infected in HAE cells measured after 48 hrs by CellTiter-Glo assay; type: functional, organism-based; conditions: Severe acute respiratory syndrome-related coronavirus
SARS-CoV-2 [23] = experiment: Antiviral activity against SARS CoV-2 infected in African green monkey Vero E6 cells assessed as inhibition of virus-induced cytopathic effect measured after 72 hrs by Reed-Muench method; type: functional, organism-based; conditions: Severe acute respiratory syndrome coronavirus 2, Vero C1008, 72 h
[24] = test system: Middle East respiratory syndrome-related coronavirus; experiment: Antiviral activity against […] CoV infected in HAE cells measured after 48 hrs by CellTiter-Glo assay; type: functional, organism-based
in vivo [25] = conditions: C57BL/6J (Ces1c knockout), mouse, sc, 25 mg/kg
SARS-CoV-2 [26] = experiment: Antiviral activity against SARS CoV-2 infected in human Huh-7 cells measured up to 72 hrs by plaque assay; type: functional, organism-based; conditions: Severe acute respiratory syndrome coronavirus 2, Huh-7, 72 h
[27] = target: T1, Replicase polyprotein 1ab; experiment: Inhibition of SARS CoV-2 PL protease

CC(C)(C)OC(=O)Nc1cccn([C@@H](CC2CC2)C(=O)N[C@@H](C[C@@H]2CCNC2=O)C(=O)C(=O)NCc2ccccc2)c1=O
Cmax [1]: 126 ng/mL
half-life [2]: < 120 min
pIC50 [3]: 6.24

O=c1nc(NO)ccn1[C@@H]1O[C@H](CO)[C@@H](O)[C@H]1O [N-HYDROXYCYTIDINE]
pEC50 (SARS-CoV [4]): 6.85
half-life [5]: 162 min
half-life [6]: 192 min
bioavailability [7]: 43%
pEC50 [8]: 7.62
pEC50 (SARS-CoV-2 [9]): 6.52
bioavailability [10]: 56%
pEC50 (SARS-CoV-2 [11]): 7.10
half-life [12]: 312 min
CC50 at 48 h [13]: > 10 µM
bioavailability [14]: 36%
Drug uptake [15]: 10 nmol/g

O=C[C@H](C[C@@H]1CCNC1=O)NC(=O)[C@H](Cc1cccc(F)c1)NC(=O)c1cc2ccccc2[nH]1
CL/F [16]: 21 mL/min/kg
pEC50 (SARS-CoV-2 [17]): 6.14
CC50 [18]: > 100 µM

O=C(O)[C@H]1O[C@@H](Oc2cc3oc(-c4ccccc4)cc(=O)c3c(O)c2O)[C@H](O)[C@@H](O)[C@@H]1O [BAICALIN]
CC50 at 3 h [19]: > 200 µM

O=C(Nc1ccccc1O)c1ccccc1[Se][Se]c1ccccc1C(=O)Nc1ccccc1O
pIC50 [20]: 4.47

CCC(CC)COC(=O)[C@H](C)N[P@](=O)(OC[C@H]1O[C@@](C#N)(c2ccc3c(N)ncnn23)[C@H](O)[C@@H]1O)Oc1ccccc1
half-life at 144 h (in vivo [21]): < 5 min
pEC50 (SARS-CoV [22]): 7.16
pEC50 (SARS-CoV-2 [23]): 6.19
pEC50 [24]: 7.13
half-life at 144 h (in vivo [25]): 25 min
pEC50 (SARS-CoV-2 [26]): 8.52

CC(=O)N[C@@H](CCc1nc2ccccc2s1)C(=O)N[C@@H](CN)C(=O)NCC(=O)NC/C=C/C(=O)O
pIC50 [27]: 5.00
